Laboratory results published in ChEMBL document CHEMBL3351287, “β-Ionone derived apoptosis inducing endoperoxides; Discovery of potent leads for anticancer agents” (Eur J Med Chem, 2014).
Counter-ions that a name gives are not always drawn. Calls of active or inactive are those of the source. No cut-off for these calls is given here.

How the values were obtained:
THP-1 = experiment: Cytotoxicity against human THP1 cells after 48 hrs by SRB assay; format: functional, cell-based; conditions: THP-1, 48 h
A549 [1] = experiment: Cytotoxicity against human A549 cells after 48 hrs by SRB assay; format: functional, cell-based; conditions: A549, 48 h
[2] = Cytotoxicity against human PC3 cells after 48 hrs by SRB assay; format: functional, cell-based; conditions: PC-3, 48 h
MCF7 = experiment: Cytotoxicity against human MCF7 cells after 48 hrs by SRB assay; format: functional, cell-based; conditions: MCF7, 48 h
A549 [3] = experiment: Induction of apoptosis in human A549 cells assessed as increase in hypodiploid sub-G1 DNA fraction at 1 uM after 24 hrs by propidium iodide-based flow cytometric analysis (reference value: 3 %); format: functional
A549 [4] = experiment: Induction of apoptosis in human A549 cells assessed as increase in hypodiploid sub-G1 DNA fraction at 10 uM after 24 hrs by propidium iodide-based flow cytometric analysis (reference value: 3 %); format: functional
A549 [5] = experiment: Induction of apoptosis in human A549 cells assessed as loss of membrane potential at 1 uM after 24 hrs using Rhodamine-123 by flow cytometric analysis (Rvb =12.1 %); format: functional
A549 [6] = experiment: Induction of apoptosis in human A549 cells assessed as increase in intracellular ROS at 1 uM after 24 hrs using DCFH-DA by spectrofluorimetry relative to control; format: functional, cell-based
A549 [7] = experiment: Induction of apoptosis in human A549 cells assessed as caspase 3 activation at 1 uM after 12 hrs […] by colorimetry relative to control; format: functional, cell-based
A549 [8] = experiment: Induction of apoptosis in human A549 cells assessed as caspase 9 activation at 1 uM after 12 hrs […] by colorimetry relative to control; format: functional, cell-based
CHO [9] = experiment: Cytotoxicity against CHO cells assessed as change in LDH at 1 uM after 48 hrs by LDH colorimetric assay relative to control; format: cell-based, Cricetulus griseus; conditions: chinese hamster
CHO [10] = experiment: Cytotoxicity against CHO cells assessed as change in LDH at 20 uM after 48 hrs by LDH colorimetric assay relative to control; format: cell-based, Cricetulus griseus; conditions: chinese hamster
A549 [11] = experiment: Induction of apoptosis in human A549 cells assessed as loss of membrane potential at 2 uM after 24 hrs using Rhodamine-123 by flow cytometric analysis (Rvb =12.1 %); format: functional
CHO [12] = experiment: Cytotoxicity against CHO cells assessed as change in LDH at 10 to 100 uM after 48 hrs by LDH colorimetric assay relative to control; format: cell-based, Cricetulus griseus; conditions: chinese hamster
A549 [13] = experiment: Induction of apoptosis in human A549 cells assessed as increase in hypodiploid sub-G1 DNA fraction at 2 uM after 24 hrs by propidium iodide-based flow cytometric analysis (reference value: 3 %); format: functional

Compound	IC50 (THP-1)	IC50 (A549 [1])	IC50 [2]	IC50 (MCF7)	Activity (A549 [3])	Activity (A549 [4])	Activity (A549 [5])	Activity (A549 [6])	Activity (A549 [7])	Activity (A549 [8])	Activity (CHO [9])	Activity (CHO [10])	Activity (A549 [11])	Activity (CHO [12])	Activity (A549 [13])
COc1ccc(/C=C/[C@@]23C=CC4(OO2)C(C)(C)CCC[C@]4(C)O3)c(OC)c1OC (mixture of isomers)	25 µM	7 µM	> 100 µM	18 µM	60.4%	74.7%	91.7%	Active	Active	Active	–	–	–	–	–
CC1(C)CCC[C@]2(C)O[C@]3(/C=C/c4ccccc4Cl)C=CC12OO3 (mixture of isomers)	3.5 µM	0.9 µM	13 µM	1 µM	16.9%	61%	99.7%	Active	Active	Active	–	–	–	–	–
CC1(C)CCC[C@]2(C)O[C@]3(/C=C/c4ccc(Cl)c(Cl)c4)C=CC12OO3 (mixture of isomers)	0.2 µM	4.1 µM	21 µM	4.2 µM	48.2%	71.7%	63%	Active	Active	Active	–	–	–	–	–
COc1ccccc1/C=C/[C@@]12C=CC3(OO1)C(C)(C)CCC[C@]3(C)O2 (mixture of isomers)	13 µM	6.5 µM	> 100 µM	11 µM	68.2%	83%	99.8%	Active	Active	Active	–	–	–	–	–
CC1(C)CCC[C@]2(C)O[C@]3(/C=C/c4ccccc4Br)C=CC12OO3 (mixture of isomers)	0.1 µM	2 µM	> 100 µM	1.3 µM	44.9%	78.2%	99.8%	Active	Active	Active	–	–	–	–	–
Cc1ccccc1/C=C/[C@@]12C=CC3(OO1)C(C)(C)CCC[C@]3(C)O2 (mixture of isomers)	4 µM	4.3 µM	20 µM	0.01 µM	67%	69.8%	50.5%	Active	Active	Active	–	–	–	–	–
COc1ccc(/C=C/[C@@]23C=CC4(OO2)C(C)(C)CCC[C@]4(C)O3)cc1OC (mixture of isomers)	11 µM	12 µM	> 100 µM	10 µM	67.9%	69.8%	99.7%	Active	Active	Active	–	–	–	–	–
CC1(C)CCC[C@]2(C)O[C@]3(/C=C/c4cccc5ccccc45)C=CC12OO3 (mixture of isomers)	7.4 µM	0.02 µM	> 100 µM	0.7 µM	66.8%	80.3%	99.8%	Active	Active	Active	–	–	–	–	–
CC1(C)CCC[C@]2(C)O[C@]3(/C=C/c4ccccc4F)C=CC12OO3 (mixture of isomers)	0.4 µM	0.003 µM	> 100 µM	0.1 µM	60.7%	74.8%	99.8%	Active	Active	Active	–	–	–	–	–
CC1(C)CCC[C@]2(C)O[C@]3(/C=C/c4ccccc4[N+](=O)[O-])C=CC12OO3 (mixture of isomers)	2.8 µM	0.001 µM	> 100 µM	7.7 µM	74.8%	76%	99.7%	Active	Active	Active	108%	135%	–	–	–
CC[C@@]1(O)C(=O)OCc2c1cc1n(c2=O)Cc2cc3ccccc3nc2-1 [CAMPTOTHECIN]	–	–	–	–	–	–	–	–	–	–	–	–	96.1%	126%	49%
COc1cccc2c1C(=O)c1c(O)c3c(c(O)c1C2=O)C[C@@](O)(C(=O)CO)C[C@@H]3O[C@H]1C[C@H](N)[C@H](O)[C@H](C)O1 [DOXORUBICIN HYDROCHLORIDE]	–	0.1 µM	–	–	–	–	–	–	–	–	–	–	–	–	–
O=c1[nH]cc(F)c(=O)[nH]1 [FLUOROURACIL]	0.04 µM	–	–	–	–	–	–	–	–	–	–	–	–	–	–
CO[C@@]12[C@H](COC(N)=O)C3=C(C(=O)C(C)=C(N)C3=O)N1C[C@@H]1N[C@@H]12 [MITOMYCIN]	0.1 µM	0.04 µM	–	0.2 µM	–	–	–	–	–	–	–	–	–	–	–
